Like-named read-outs stand apart in the source and are kept apart here.
Experiments:
[1] = test system: 251L; test: Monolayer proliferation assay Protocol 1 (propidium iodide); type: cell-based, human; conditions: 4 days, mean of duplicate experiments
Description: (§1) In vitro evaluation of compounds for anticancer activity in a panel of 12 human tumour cell lines in a monolayer proliferation assay were carried out at the Oncotest Testing Facility, Institute for Experimental Oncology, Oncotest GmbH, Freiburg.
(§2) A modified propidium iodide assay was used to assess the effects of the test compound(s) on the growth of twelve human tumor cell lines (Dengler et al, 1995).
(§3) Briefly, cells were harvested from exponential phase cultures by trypsinization, counted and plated in 96 well flat-bottomed microtitre plates at a cell density dependent on the cell line (5-10.000 viable cells/well). […] Each concentration was plated in triplicate. 39-Desmethoxyrapamycin was applied in two concentrations (0.001 mM and 0.01 mM).
(§4) Growth inhibition was expressed as treated/control×100 (% TIC). For active compounds, IC50 & IC70 values were estimated by plotting compound concentration versus cell viability.
(§5) In vitro evaluation of 39-desmethoxyrapamycin for anticancer activity in a panel of 12 human tumour cell lines in a monolayer proliferation assay was carried out as described as Protocol 1 in the general methods above using a modified propidium iodide assay.

[2] = test system: DU145; test: as above; type: cell-based, human; conditions: 4 days, mean of duplicate experiments
Description: as §1, §2, §3, §4, §5

[3] = test system: MDA231; test: as above; type: cell-based, human; conditions: 4 days, mean of duplicate experiments
Description: as §1, §2, §3, §4, §5

[4] = test system: MDA468; test: as above; type: cell-based, human; conditions: 4 days, mean of duplicate experiments
Description: as §1, §2, §3, §4, §5

[5] = test system: SF268; test: as above; type: cell-based, human; conditions: 4 days, mean of duplicate experiments
Description: as §1, §2, §3, §4, §5

[6] = test system: panel of 12 human tumour cell lines; test: Monolayer proliferation assay Protocol 1, mean across the cell lines tested; type: cell-based
Description: as §1, §2, §3, §4, §5

[7] = test system: A498; test: Monolayer assay Protocol 2 (SRB), high MDR-expressing cell lines; type: cell-based, human; conditions: Renal A498, high MDR-expressing, 48 h
Description: (§6) The human tumor cell lines of the National Cancer Institute (NCI) cancer screening panel were grown in RPMI 1640 medium containing 5% fetal bovine serum and 2 mM L-glutamine (Boyd and Paull, 1995). Cells were inoculated into 96 well microtiter plates in 0.1 mL at plating densities ranging from 5,000 to 40,000 cells/well depending on the doubling time of individual cell lines. After cell inoculation, the microtiter plates were incubated at 37° C., 5% CO2, 95% air and 100% relative humidity for 24 h prior to addition of experimental drugs.
(§7) After 24 h, two plates of each cell line were fixed in situ with trichloroacetic acid (TCA), to represent a measurement of the cell population for each cell line at the time of drug addition (Tz). Experimental drugs were solubilized in dimethyl sulfoxide at 400-fold the desired final maximum test concentration and stored frozen prior to use. At the time of drug addition, an aliquot of frozen concentrate was thawed and diluted to twice the desired final maximum test concentration with complete medium containing 0.05 mg/mL gentamicin. Additional four, 10-fold or ½ log serial dilutions were made to provide a total of five drug concentrations plus control. Aliquots of 0.1 mL of these different drug dilutions were added to the appropriate microtiter wells already containing 0.1 mL of medium, resulting in the required final drug concentrations.
(§8) Following drug addition, the plates were incubated for an additional 48 h at 37° C., 5% CO2, 95% air, and 100% relative humidity. For adherent cells, the assay was terminated by the addition of cold TCA. Cells were fixed in situ by the gentle addition of 0.05 mL of cold 50% (w/v) TCA (final concentration, 10% TCA) and incubated for 60 minutes at 4° C. The supernatant was discarded, and the plates were washed five times with tap water and air dried. Sulforhodamine B (SRB) solution (0.1 mL) at 0.4% (w/v) in 1% acetic acid was added to each well, and plates were incubated for 10 minutes at room temperature. After staining, unbound dye was removed by washing five times with 1% acetic acid and the plates were air dried. Bound stain was subsequently solubilized with 10 mM trizma base, and the absorbance was read on an automated plate reader at a wavelength of 515 nm. […] Using the seven absorbance measurements [time zero, (Tz), control growth, (C), and test growth in the presence of drug at the five concentration levels (Ti)], the percentage growth was calculated at each of the drug concentrations levels. Percentage growth inhibition was calculated as:
(§9) Three dose response parameters were calculated for each experimental agent. […] The drug concentration resulting in total growth inhibition (TGI) was calculated from Ti=Tz. […]

[8] = test system: SF295; test: as above; type: cell-based, human; conditions: CNS SF295, high MDR-expressing, 48 h
Description: as §6, §7, §8, §9

[9] = Human Liver Microsomal (HLM) stability assay; type: in vitro ADME
Description: Liver homogenates provide a measure of a compounds inherent vulnerability to Phase I (oxidative) enzymes, including CYP450s (e.g. CYP2C8, CYP2D6, CYP1A, CYP3A4, CYP2E1), esterases, amidases and flavin monooxygenases (FMOs).
The half life (T½) of test compounds was determined, on exposure to Human Liver Microsomes, by monitoring their disappearance over time by LC-MS. Compounds at 0.001 mM were incubated at for 40 min at 37° C., 0.1 M Tris-HCl, pH 7.4 with human microsomal sub-cellular fraction of liver at 0.25 mg/mL protein and saturating levels of NADPH as co-factor. At timed intervals, acetonitrile was added to test samples to precipitate protein and stop metabolism. Samples were centrifuged and analysed for parent compound using analytical Method A (see Materials & Methods).

| Compound | Test/Control (%) at drug concentration ([1]; 1 μM) | Test/Control (%) at drug concentration ([1]; 10 μM) | Test/Control (%) at drug concentration ([2]; DU145, 1 μM) | Test/Control (%) at drug concentration ([2]; DU145, 10 μM) | Test/Control (%) at drug concentration ([3]; MDA231, 1 μM) | Test/Control (%) at drug concentration ([3]; MDA231, 10 μM) | Test/Control (%) at drug concentration ([4]; MDA468, 1 μM) | Test/Control (%) at drug concentration ([4]; MDA468, 10 μM) | Test/Control (%) at drug concentration ([5]; SF268, 1 μM) | Test/Control (%) at drug concentration ([5]; SF268, 10 μM) | IC50 [6] | Mean IC70 [6] | Log GI50 [7] | Log GI50 [8] | metabolic stability compared to rapamycin [9] | HLM stability: T½ min ([9]; 0.001 mM, 0.25 mg/mL protein, NADPH, 37° C.) | IC50 ([6]; Homo sapiens) | GI50 ([7]; Homo sapiens) | GI50 ([8]; Homo sapiens, SF-295) | half-life at 0.001 mM ([9]; human, liver microsomes, pH 7.4, 0.001 mM, 0.25 mg/mL protein, NADPH, 37° C., read-out: HLM stability: T½ min) |
| --- | --- | --- | --- | --- | --- | --- | --- | --- | --- | --- | --- | --- | --- | --- | --- | --- | --- | --- | --- | --- |
| COC1CC2CCC(C)C(O)(O2)C(=O)C(=O)N2CCCCC2C(=O)OC(C(C)CC2CCC(O)CC2)CC(=O)C(C)C=C(C)C(O)C(OC)C(=O)C(C)CC(C)C=CC=CC=C1C (stereo not shown) [39-desmethoxyrapamycin] | 86% | 32.5% | 65.5% | 44.5% | 68% | 37.5% | 65% | 13.5% | 57.5% | 23% | 3.25 µM | 6.95 µM | −7.07 | −5.85 | increased metabolic stability | 59 min |  |  |  |  |
| CO[C@H]1C[C@@H]2CC[C@@H](C)[C@@](O)(O2)C(=O)C(=O)N2CCCC[C@H]2C(=O)O[C@H]([C@H](C)C[C@@H]2CC[C@@H](O)[C@H](OC)C2)CC(=O)[C@H](C)/C=C(\C)[C@@H](O)[C@@H](OC)C(=O)[C@H](C)C[C@H](C)/C=C/C=C/C=C/1C [Rapamycin] | 75.5% | 40% | 50.5% | 54% | 67% | 63.5% | 56.5% | 32% | 53.5% | 46% |  | 9.1 µM |  |  |  |  | 3.5 µM | 0.251 µM | 0.1 µM | 40 min |
